Patent EP0536419B1, “TRICYCLIC TRIAZOLE DERIVATIVES, PRODUCTION AND USE THEREOF” (TORAY INDUSTRIES, INC., priority 1991, dated 1992)

Experiments:
[1] = tested on: passive cutaneous anaphylaxis (PCA); assay: Test for antiallergic action: rat passive cutaneous anaphylaxis (PCA) reaction; assay type: in vivo; conditions: rats, oral, 50 mg/kg in olive oil, 1 hour before antigen challenge, read-out: Inhibition Rate (%) Anti-PCA
Procedure: The antiallergic action was evaluated by passive cutaneous anaphylaxis (PCA) test using rats. The test was carried out using Wister male rats having body weights of 150 - 200 g. Physiological saline containing anti-dinitrophenyl group (DNP) mouse IgE monoclonal antibody (commercially available from Seikagaku Kogyo Co., Ltd.) was intracutaneously injected in the skin of the back of each rat. Twenty three hours later, a suspension of the test compound in olive oil was orally administered at a dose of 50 mg/kg to each rat. One hour later, 0.5 ml of physiological saline containing 2 mg/ml of ovalbumin modified with dinitrophenyl hapten and 1% Evans blue were administered to each rat via femoral vein. Thirty minutes later, the rat was killed by cutting the carotid artery. The skin was peeled off and the portion stained in blue was cut out. The cut out portion was minced in […] and the pigment was extracted at 60°C for 48 hours. The minced skin was removed by centrifugation (1500 x g, 10 min.) and the absorbance at 620 nm of the supernatant was measured. Based on a preliminarily prepared calibration curve, the pigment leaked to the topical portion was quantified. As a control, olive oil alone was administered and the ratio of the amount of the pigment in test groups to the amount of the pigment in control group is expressed as inhibition rate.

histamine = assay: Histamine-antagonizing action: histamine-induced skin pigment leakage in rats; assay type: in vivo; conditions: Rattus norvegicus, oral, 50 mg/kg in olive oil, 1 hour before intracutaneous histamine (50 µl of 900 µM), read-out: Inhibition Rate (%) Antihistamine
Procedure: A suspension of a test compound in olive oil was orally administered at a dose of 50 mg/kg to each rat of the same kind as those used in 1. One hour later, physiological saline containing 1% Evans blue was intravenously administered at a dose of 3 ml/kg. Immediately thereafter, 50 µl of 900 µM histamine solution was intracutaneously administered to each rat. Thirty minutes later, the pigment in the blue-stained portion in the skin was extracted and quantified as mentioned above. Using the amount of the pigment when olive oil was administered as control, the inhibition rate which is the ratio of the amount of the pigment when the test compound was administered to the control was calculated.

rabbit platelets = rabbit platelets (Oryctolagus cuniculus, UniProt G1TEI7); assay: in vitro platelet agglutination inhibition test (PAF-induced); assay type: cell-based; conditions: rabbit platelet-rich plasma, PAF final concentration 10 ng/ml, 37°C; read-out: PAF-Induced Platelet Aggregation IC50 (converted)
PAF receptor = target: T1, PAF receptor (Oryctolagus cuniculus, UniProt G1TEI7); assay: Binding test using [3H]-PAF (PAF receptor binding test); design: species or system rabbit; conditions: rabbit platelet membrane fraction, [3H]-PAF 0.4 nM, 25°C, 60 minutes; read-out: Receptor Binding Inhibition IC50 (converted)
T1 construct: Cell membrane fraction of rabbit platelets was prepared; from tissue; host or cells: rabbit platelets (cell membrane fraction)
Procedure: Binding Test Using [^3H]-PAF (PAF receptor binding test)
Cell membrane fraction of rabbit platelets was prepared in accordance with the method by Hwang et al (Biochemistry; 22; 4756, (1983)). In 10 mM Tris buffer containing 0.25% bovine serum albumin, 50 mg of this membrane fraction was suspended and tritium-labelled PAF [^3H]-PAF; 0.4 nM) and a test compound were added thereto. After incubating the resulting mixture at 25°C for 60 minutes, the mixture was subjected to filtration through a filter paper made of glass fibers. The filter paper was washed with cold Tris buffer three times and then transferred to a vial. A scintillator was added thereto and the dose of radioactivity was measured with a liquid scintillation counter. The inhibition rate (binding ability) of the test compound was calculated according to the following equation and IC50 values were determined by interpolation. Inhibition Rate (%) = {1 - [((A - B))/((C - B))]} x 100 [formula] (wherein A represents amount bound in the presence of the compound, B represents amount bound by non-specific binding which is the dose of [^3H]-PAF bound radioactivity in the presence of 1 µM of PAF, and C represents total amount bound which is the dose of [^3H]-PAF bound radioactivity.
As a control agent, WEB2086 (Japanese Laid-open Patent Application (Kokai) No. 65-176591) disclosed as a PAF-antagonist was used.

[2] = tested on: PAF-induced Bronchial Hyperresponsiveness; assay: PAF-induced bronchial hyperresponsiveness model in guinea pigs; assay type: in vivo; conditions: oral, Dose 1 mg/kg, ratio of Ach threshold value after/before PAF inhalation
Procedure: The test was carried out using Hartley male guinea pigs having body weights of 300 - 400 g.
Guinea pigs were retained on body plethysmo boxes without anesthesia and the respiratory resistances (Rrs) were determined by osscilation method. […] The Ach threshold value which is required for the Rrs to reach 1.5 cm H2O/ml/sec was determined. […] The Ach threshold value means the value calculated taking the value when a guinea pig is made to inhale 1000 ug/ml of Ach aerosol for 1 minute as 1 unit. The above-described operation was carried out using Animal Ast (registered trademark) commercially available from Chest M. I. Co., Ltd.
By the method of A), the bronchial responsiveness of guinea pigs, that is, the Ach threshold values were determined. Subsequently, each animal was made to inhale aerosol of 100 µg/ml of PAF solution for 10 minutes. Forty minutes after the completion of the inhalation, the bronchial responsiveness was again measured by the method of A). The bronchial hyperresponsiveness was detected based on the ratio between the Ach threshold value before and after the inhalation of PAF (Ach respiration threshold value after inhalation of PAF/Ach respiration threshold value before inhalation of […]; Post/Pre value). That is, if the bronchial hyperresponsiveness is strongly promoted, the Post/Pre value is lower than 1.0, and if it is not promoted, the Post/Pre value is about 1.0. A suspension of a test compound in olive oil was orally administered to each guinea pig and the determined Post/Pre value was compared with that of the control group to which olive oil was administered to evaluate the inhibition effect. […]

T1 sequence (G1TEI7 1-342): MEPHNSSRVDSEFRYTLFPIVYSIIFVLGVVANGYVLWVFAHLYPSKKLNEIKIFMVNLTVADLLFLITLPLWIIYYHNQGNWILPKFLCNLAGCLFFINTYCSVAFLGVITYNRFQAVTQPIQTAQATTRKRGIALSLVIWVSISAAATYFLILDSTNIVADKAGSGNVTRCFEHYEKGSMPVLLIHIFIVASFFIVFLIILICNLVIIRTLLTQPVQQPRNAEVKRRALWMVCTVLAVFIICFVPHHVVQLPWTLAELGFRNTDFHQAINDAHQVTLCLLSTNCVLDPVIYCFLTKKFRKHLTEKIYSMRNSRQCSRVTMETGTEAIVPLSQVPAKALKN
Chain of rabbit platelets (G1TEI7 1-342): as above

In the case of CCc1nnc2n1-c1ccccc1N(CCCN1CCC(c3c[nH]c4ccccc34)CC1)C2 [Compound 52, 1-ethyl-4,5-dihydro-5-[3-[4-(3-indolyl)piperidin-1-yl]propyl] [1,2,4]triazolo[4,3-a]quinoxaline], the inhibition at 50 mg/kg [1] is reported as 65%, the inhibition at 50 mg/kg (histamine) is reported as 47% and the IC50 (rabbit platelets) is reported as 12.3 µM. For the same compound, the IC50 (PAF receptor) was 7.94 µM and the Post/Pre [2] was 1.37.
